Assays:
[1] = tested on: DSS-treated FVB mice; experiment: Acute colitis (acute Crohn-like disease) induced by DSS 2% in mice; type: in vivo; conditions: acute model
Procedure: FIG. 5. TNF-α levels in mice treated with DSS alone or DSS+comp 4. Untr=Untreated; DSS=Mice treated with DSS alone; DSS comp 4=Mice treated with DSS and comp 4;=Mice treated comp 4 alone.
In mice induced for acute Crohn's disease, modifications of epithelial permeability of the intestine were determined by measuring intestinal transmembrane resistance using the Ussing chamber. For this purpose, 2-months old FVB mice were administered dextran sulfate sodium (DSS) 2% in the drinking water for 7 days (Wirtz et al, 2007). […] Eventually, the serum levels of the inflammatory cytokine TNF-α were measured in mice treated with DSS alone or with DSS+4.

[2] = tested on: Caco-2 enterocytes; experiment: Doxorubicin-induced injury of Caco-2 enterocytes (ROS in culture medium); type: cell-based; conditions: Caco-2 monolayer, 3 μM doxorubicin + compound 4
Procedure: FIG. 10. Measurement of ROS in the cell culture medium of untreated enterocytes or enterocytes treated with doxorubicin+compound 4. Ctrl=Untreated (control) cells; Doxo=Cells treated with doxorubicin alone; Doxo comp 4=Cells treated with doxorubicin and compound 4.
Compound 4 has shown protective efficacy also in an in vitro model of chemotherapy-induced injury of enterocytes. In this model, a monolayer of Caco-2 enterocytes was treated with 3 μM doxorubicin alone or doxorubicin and 4.

[3] = tested on: DSS-treated mice; experiment: Chronic Crohn-like disease induced by 4 cycles of DSS 2% in mice; type: in vivo; conditions: chronic model
Text: FIG. 6. Colon length in untreated mice or mice treated with DSS+comp 4. Untr=Untreated; DSS=Mice treated with DSS alone; DSS comp 4=Mice treated with DSS and comp 4;=Mice treated comp 4 alone.
FIG. 7. TNF-α content in the protein extract of the colon of untreated mice or mice treated with DSS+comp 4. Untr=Protein extract from colon of untreated mice; DSS=Protein extract from colon of mice treated with DSS alone; DSS comp 4=Protein extract from colon of mice treated with DSS+comp 4;=Protein extract from colon of mice treated with comp 4 alone.
Chronic Crohn-like disease was induced in mice by administration of DSS 2% for 4 cycles, with each cycle consisting in exposition to DSS 2% for 7 days, followed by 14 days of regular water. In mice that were administered also compound 4, last exposition of DSS was followed by p.o. administration of compound 4 at 25 μg/kg, 4 times/week for 3 weeks.
One hallmark of the chronic Crohn's disease model is the shortening of the colon.
Another parameter that was measured in this setting was the TNF-α content in the protein extract of the colon of mice. DSS 2% alone led to a dramatic increase of the TNF-α levels in the protein extract, while co-treatment with compound 4 led to normalization of these levels.

[4] = tested on: mice treated with doxorubicin and 5-fluoruracil; experiment: Chronic doxorubicin- and 5-fluoruracil-induced enterocyte injury in mice; type: in vivo
Procedure: FIG. 11. Serum levels of KC in untreated mice or mice submitted to acute treatment with doxorubicin or chronic treatment with doxorubicin and 5-fluorouracil. Untr=Untreated; Doxo 27 mg=Mice submitted to acute treatment with doxorubicin; Doxo 27 mg comp 4=Mice submitted to acute treatment with doxorubicin and concomitant p.o. administration of comp 4; Doxo cron=Mice submitted to chronic treatment with doxorubicin and 5-fluoruracil; Doxo cron comp 4=Mice submitted to chronic treatment with doxorubicin and 5-fluoruracil and concomitant p.o. administration of compound 4.
FIG. 13. Histology of the epithelium of the small intestine in mice after chronic treatment with doxorubicin and 5-fluoruracil (DOXO+FLUO) or chronic treatment with doxorubicin and 5-fluoruracil and concomitant administration of compound 4 (comp 4+DOXO+FLUO).
For the chronic model of enterocyte injury, doxorubicin was administered 1×/week for three weeks (7 mg/kg for the first two administrations, […] for the last administration). At the same times, mice were administered also 5-fluoruracil at 100 mg/kg. Administrations of the chemotherapeutics were performed intraperitoneally. Some of the mice were treated at the same times with compound 4 (25 μg/kg, orally). Recovery of the blood for the determination of circulating KC levels and subsequent sacrifice of the animals were performed at 72 h after the last treatment. […]

[5] = tested on: HT29 cells; experiment: LPS-induced IL-8 production by HT29 intestinal epithelial cells (ELISA); type: cell-based, human; conditions: compounds 50 mg/L to 5 μg/L for 18 h, then LPS (Salmonella enterica abortus equi) 1 μg/ml 6 h
Procedure: FIG. 2A. LPS-induced IL-8 production by HT29 cells in the absence or presence of the indicated concentrations of compound (c) 4, 5, 6, 7, 4′, 14.
The effect of the compounds on the release of IL-8 or KC was tested upon stimulation of intestinal epithelial cells (IEC) with LPS from Salmonella enterica abortus equi. The human IEC line HT29 was used for these experiments. Cells were cultured for 18 h in medium alone or in medium additioned with different concentrations of compounds 4, 5, 6, 7, 4′ and 14 (from 50 mg/L to 5 μg/L). Then, cells were stimulated for 6 h with LPS (1 μg/ml). […] Similar experiments were performed on a human pneumocyte type II cell line (A549) using compound 4 and LPS from Pseudomonas aeruginosa.

For `CN(C)c1cccc2c(S(=O)(=O)NCC[C@H]3O[C@H](CO)[C@@H](O)[C@H](O)[C@H]3O)cccc12` [Compound 4, 5-(Dimethylamino)-N-[2′-(α-D-glucopyranosyl)ethyl]-1-naphthalenesulphonamide], the “Serum levels of TNF-α (increase induced by DSS 2%)” value ([1]; DSS 2% + compound 4) was “strongly inhibited”, the Intestinal transmembrane resistance ([1]; DSS 2% in drinking water 7 days + compound 4, Ussing chamber) was 49 Ω × cm^2 and the “reactive oxygen species (ROS) in the cell culture medium” value [2] was “complete inhibition”. The Intestinal transmembrane resistance ([3]; 4 cycles DSS 2% + compound 4 25 μg/kg p.o. 4 times/week for 3 weeks) was 47 Ω × cm^2, the “TNF-α content in the protein extract of the colon” value ([3]; DSS 2% + compound 4) was “normalization” and the “mean length of the colon” value ([3]; DSS 2% + compound 4) was 11.55 cm. For the same compound, the “Histology of the small intestine” value ([4]; chronic doxorubicin + 5-fluoruracil + compound 4 25 μg/kg orally) was “completely normal morphology”, the “circulating KC levels” value ([4]; doxorubicin 1×/week for three weeks + 5-fluoruracil 100 mg/kg i.p. + compound 4 25 μg/kg orally, 72 h after last treatment) was “brought the levels back to those observed in untreated mice” and the “production of IL-8 induced by LPS” value [5] was “significantly inhibited”.
